{
  "source": "patent US5686422A",
  "about": "“Synthetic inhibitors of mammalian collagenase” (Research Corporation Technologies, Inc., priority 1995, dated 1997)",
  "key": {"[1]": {"biological_target": "T1, PA elastase (Pseudomonas aeruginosa, UniProt P14756)", "T1 construct": "made in house; host or cells: native secreted enzyme from a virulent Pseudomonas aeruginosa strain grown on tryptone glucose extract agar", "T1 sequence (P14756 198-498)": "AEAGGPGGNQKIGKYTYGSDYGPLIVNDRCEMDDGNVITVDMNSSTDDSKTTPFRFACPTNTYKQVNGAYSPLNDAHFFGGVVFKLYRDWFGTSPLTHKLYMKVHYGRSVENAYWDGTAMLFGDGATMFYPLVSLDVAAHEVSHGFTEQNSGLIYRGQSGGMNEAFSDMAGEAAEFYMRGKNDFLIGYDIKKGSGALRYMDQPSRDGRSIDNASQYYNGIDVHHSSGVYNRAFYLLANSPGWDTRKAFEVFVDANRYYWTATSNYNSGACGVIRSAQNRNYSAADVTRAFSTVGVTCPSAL", "assay": "biochemical", "procedure": "Pseudomonas aeruginosa proteases were obtained by overnight incubation of virulent strain of Pseudomonas aeruginosa (PA) on tryptone glucose extract agar.\nThe PA elastase was tested in accordance with the procedures analogous to those conducted on purified collagenase in Example 5.\nExample 7 was repeated using three corneal ulceration treatments of the prior art: Tetracycline, minocycline and doxycycline."}, "[2]": {"biological_target": "T2, Collagenase, purified from sodium hydroxide burned rabbit corneal tissue (Oryctolagus cuniculus, UniProt P13943)", "T2 sequence (P13943 99-468)": "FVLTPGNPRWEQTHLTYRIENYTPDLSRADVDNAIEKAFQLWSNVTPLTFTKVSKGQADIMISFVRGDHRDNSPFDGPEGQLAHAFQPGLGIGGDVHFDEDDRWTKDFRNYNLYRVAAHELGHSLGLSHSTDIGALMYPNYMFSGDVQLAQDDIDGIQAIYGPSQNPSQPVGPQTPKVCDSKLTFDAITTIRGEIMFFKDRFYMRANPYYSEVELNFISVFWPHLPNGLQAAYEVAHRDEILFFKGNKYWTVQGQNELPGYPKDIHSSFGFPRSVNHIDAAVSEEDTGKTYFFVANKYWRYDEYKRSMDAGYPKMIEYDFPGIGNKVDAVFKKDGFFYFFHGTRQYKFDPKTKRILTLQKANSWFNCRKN", "assay": "Qualitative SDS-PAGE assay of collagen degradation by corneal collagenase", "type": "biochemical", "procedure": "Collagenase, purified from sodium hydroxide burned rabbit corneal tissue, was placed in a reaction mixture containing Type I collagen (0.4 mg/ml), 0.005M Tris-HCl, 0.2M NaCl, 0.25M glucose, pH 7.7. Reactions were initiated by adding the enzyme to the reaction mixture; inhibitory potency was estimated by running separate reaction mixtures in which the peptide HSCH2 CH[CH2 CH(CH3)2 ]--CO-Phe-Ala-NH2, made in accordance with Example 2, was added in varying concentrations to the mixture and incubated for 3 hours at 30° C. Other compounds were assayed for inhibitory potency in a similar manner. Reaction mixtures were quenched by placing them on ice and then adding one volume of sample dilution buffer followed by boiling the mixtures in a water bath for 5 minutes. Collagen degradation products were resolved from undegraded collagen by sodium dodecylsulfate-polyacylamide gel electrophoresis (SDS-PAGE) followed by staining with Coomassie Blue R-250. The SDS-PAGE assay was used to qualitatively evaluate the inhibitory capacity of the compounds tested. An estimate of inhibitory potency was then noted by visualizing the concentration range which produced 50% inhibition of collagen degradation.\nThe results of this qualitative assay are expressed as an IC50 range (Table II). For example, doxycyline's IC50 is 0.2 to 1.0 mM. That is, a doxycycline concentration of 0.2 to 1.0 mM is required to obtain a 50% inhibition of collagen degradation. These estimated ranges were then used to predict the inhibitor concentrations tested in the quantitative analysis detailed below."}, "[3]": {"biological_target": "T3, pig synovial collagenase (Sus scrofa, UniProt P21692)", "T3 construct": "pig synovial collagenase (0.04 μg protein); from tissue; host or cells: pig synovium (only from the enzyme's name; preparation not described)", "T3 sequence (P21692 100-469)": "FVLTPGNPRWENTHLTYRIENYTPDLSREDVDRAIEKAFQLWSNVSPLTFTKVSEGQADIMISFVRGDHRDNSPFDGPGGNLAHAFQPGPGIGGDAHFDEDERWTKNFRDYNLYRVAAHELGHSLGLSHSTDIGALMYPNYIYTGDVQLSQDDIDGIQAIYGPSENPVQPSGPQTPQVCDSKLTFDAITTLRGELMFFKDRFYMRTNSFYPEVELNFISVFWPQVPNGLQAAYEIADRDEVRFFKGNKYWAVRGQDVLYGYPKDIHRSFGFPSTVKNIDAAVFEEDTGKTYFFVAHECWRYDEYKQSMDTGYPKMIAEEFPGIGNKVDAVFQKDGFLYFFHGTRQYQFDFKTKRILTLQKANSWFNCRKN", "assay": "Collagenase assay: degradation of type I collagen (SDS-PAGE/densitometry or spectrophotometric)", "type": "biochemical", "procedure": "Collagenase activity was determined after electrophoretic separation of degraded from undegraded type I collagen by polyacrylamide gel electrophoresis and densitometry as follows.\nAcid-soluble calf skin collagen (0.25 mg/ml, approximately […]) was incubated at 35° C. for 1 hr with pig synovial collagenase (0.04 μg protein) in 0.05M tris-HCL, 0.2M NaCl, 0.25M glucose, 5 mM CaCl2, 10% dimethyl sulfoxide, pH 7.6 in a total reaction volume of 20 μL. Inhibitors were dissolved in dimethyl sulfoxide and the sulfhydryl titer determined in stock solutions immediately prior to use by the colorimetric procedure of Ellman [Ellman, G. L., Arch. Biochem. Biophys. 82: 70-77 (1959)]. At the end of the reaction period, the reactions were stopped by placing on ice and 20 μL sample dilution buffer was added [Laemmli, U. K., Nature (London) 227: 680-685 (1970)]. The samples were then placed in a boiling water bath for 2-5 minutes after which collagen degradation products were separated from undegraded collagen by sodium dodecyl sulfate-polyacrylamide electrophoresis according to the procedure of Laemmli [1970]. The electrophoretograms were fixed in isopropanol/acetic acid/water (100:40:300) and stained with 1% Coomassie Blue R-250. The percentage of collagen alpha chains degraded was estimated by scanning densitometry and integration of peak areas [Welgus et al., J. Biol. Chem. 256: 9511-9515 (1981)].\nA spectrophotometric method was also utilized in some cases to determine collagenase activity [Lindy, S. et al., European J. Biochem. 156: 1-4 (1986)]. The conditions were the same as given above except that the reaction volume was 200 μL, the temperature was 37° C. and the enzyme concentration was 1.2 μg protein/ml. Stock solutions of inhibitors were prepared in 1 mM acetic acid in ethanol and the sulfhydryl titer determined colorimetrically by the method of Ellman […]. The reaction progress was monitored for 6-10 minutes by following the increase in absorbance at 227 nm that accompanies denaturation of the collagen fragments. Initial rates of collagen degradation were determined from the linear portion of the progress curves."}, "[4]": {"biological_target": "T2, Collagenase, purified from sodium hydroxide burned rabbit corneal tissue", "assay": "Quantitative fluorometric assay with fluorogenic Dnp-peptide substrate", "type": "biochemical", "settings": "Dnp-substrate 20 uM, 37° C. for 2 to 3 minutes", "procedure": "Quantitative determination of collagenase activity was carried out with a fluorogenic peptide substrate, Dnp-Pro-Leu-Gly-Leu-Trp-Ala-D-Arg-NH2,which collagenase cleaves to produce Dnp-Pro-Leu-Gly and Leu-Trp-Ala-D-Arg-NH2. The rate of production of the tetrapeptide was monitored with an AMINCO-BOWMAN® spectrofluorometer (excitation wavelength of 280 nm and emission wavelength of 346 nm). This test was repeated using high performance liquid chromatography (HPLC) to separate and detect the two cleaved collagenase products.\nReaction mixtures for both the fluorometric and HPLC assays contained 0.05M Tris-HCl, 0.2M NaCl, 10 mM CaCl2 and Dnp-substrate 20 uM, pH 7.7. The peptide of Example 2 was added to the assay mixtures at varying concentrations. The incubation conditions differed between the two assays; the fluorometric reaction mixtures were incubated at 37° C. for 2 to 3 minutes whereas the HPLC reaction mixtures were incubated at 37° C. for 3 hours. This was necessary because the HPLC assay was not as sensitive in detecting the substrate cleavage products as the fluorometric assay. IC50 values were interpolated from plots of log[Ao /Ai)-1[ vs. log[Inhibitor], where Ao is the activity observed in the absence of inhibitor and Ai is the activity observed in the presence of inhibitor at concentration i."}, "[5]": {"settings": "SDS-PAGE, visual estimate, Type I collagen 0.4 mg/ml, 3 hours at 30° C."}, "[6]": {"settings": "mixture containing approximately equal amounts of the two diastereomers, read-out: IC50 (uM), diastereomers not resolved"}, "[7]": {"settings": "fast-eluting diastereomer (C18 reversed phase), approximate concentration giving 50% inhibition of collagen degradation, read-out: IC50 (uM) Fast Isomer"}, "[8]": {"settings": "slow-eluting diastereomer (C18 reversed phase), approximate concentration giving 50% inhibition of collagen degradation, read-out: IC50 (uM) Slow Isomer"}},
  "note": "Read-outs that look alike come from different tables or passages of the source.",
  "data": [
    {"smiles": "CN(C)c1ccc(O)c2c1C[C@H]1C[C@H]3[C@H](N(C)C)C(O)=C(C(N)=O)C(=O)[C@@]3(O)C(O)=C1C2=O", "note": "[Minocycline, minocycline]", "values": [
      {"measurement": "IC50", "setting": "[1]", "result": 260, "unit": "µM"}
    ]},
    {"smiles": "O=C1O[C@H]([C@@H](O)CO)C([O-])=C1O.[Na+]", "note": "[Sodium Ascorbate]", "values": [
      {"measurement": "Estimated IC50 Range (mM)", "setting": "[2]; [5]", "result": "No Inhibition"}
    ]},
    {"smiles": "CC(=O)N[C@@H](CS)C(=O)O", "note": "[Acetylcysteine, acetylcysteine]", "values": [
      {"measurement": "Estimated IC50 Range", "setting": "[2]; [5]", "result": "10000 to 30000", "unit": "µM"}
    ]},
    {"smiles": "CN(C)[C@@H]1C(O)=C(C(N)=O)C(=O)[C@@]2(O)C(O)=C3C(=O)c4c(O)cccc4[C@@](C)(O)[C@H]3C[C@@H]12", "note": "[Tetracycline, tetracycline]", "values": [
      {"measurement": "IC50", "setting": "[1]", "result": 660, "unit": "µM"},
      {"measurement": "Estimated IC50 Range", "setting": "[2]; [5]", "result": "1000 to 2000", "unit": "µM"}
    ]},
    {"smiles": "N[C@@H](CS)C(=O)O", "note": "[Cysteine, cysteine]", "values": [
      {"measurement": "Estimated IC50 Range", "setting": "[2]; [5]", "result": "3000 to 10000", "unit": "µM"}
    ]},
    {"smiles": "CCOC(=O)[C@H](C)NC(=O)[C@H](CCCCNC(=O)OC(C)(C)C)NC(=O)C(CS)CC(C)C", "note": "(some centres unmarked)", "values": [
      {"measurement": "IC50", "setting": "[3]; [6]", "result": 4, "unit": "µM"}
    ]},
    {"smiles": "CC(C)CC(CS)C(=O)N[C@@H](Cc1ccccc1)C(=O)N[C@@H](CC(C)C)C(N)=O", "note": "(stereo partly drawn) [Compound 5, 2-[(R,S)-Mercaptomethyl]-4-methylpentanoyl-L-phenylalanyl-L-leucine amide]", "values": [
      {"measurement": "IC50", "setting": "[3]; [7]", "result": 10, "unit": "µM"},
      {"measurement": "IC50", "setting": "[3]; [8]", "result": 4, "unit": "µM"}
    ]},
    {"smiles": "C[C@H]1c2cccc(O)c2C(=O)C2=C(O)[C@]3(O)C(=O)C(C(N)=O)=C(O)[C@@H](N(C)C)[C@@H]3[C@@H](O)[C@@H]21", "note": "[Doxycycline, doxycycline]", "values": [
      {"measurement": "IC50", "setting": "[1]", "result": 110, "unit": "µM"},
      {"measurement": "Estimated IC50 Range", "setting": "[2]; [5]", "result": "200 to 1000", "unit": "µM"}
    ]},
    {"smiles": "CC(C)CC(CS)C(=O)N[C@@H](Cc1ccccc1)C(=O)N[C@@H](C)C(N)=O", "note": "(stereo partly drawn) [Compound 3, 2-[(R,S)-Mercaptomethyl]-4-methylpentanoyl-L-phenylalanyl-L-alanine amide]", "values": [
      {"measurement": "IC50", "setting": "[1]", "result": 0.3, "unit": "µM"},
      {"measurement": "IC50", "setting": "[3]; [7]", "result": 0.3, "unit": "µM"},
      {"measurement": "IC50", "setting": "[3]; [8]", "result": 0.04, "unit": "µM"}
    ]},
    {"smiles": "O=C([O-])CC(O)(CC(=O)[O-])C(=O)[O-].[Na+].[Na+].[Na+]", "note": "[Sodium Citrate, sodium citrate]", "values": [
      {"measurement": "reversal of inhibition by excess Ca++", "setting": "[2]; SDS-PAGE assay, footnote to Table II", "result": "Reversed by addition of excess Ca++"},
      {"measurement": "Estimated IC50 Range", "setting": "[2]; [5]", "result": "10000 to 30000", "unit": "µM"},
      {"measurement": "IC50", "setting": "[4]", "result": 45000, "unit": "µM"}
    ]},
    {"smiles": "CC(C)CC(CS)C(=O)N[C@@H](Cc1c[nH]c2ccccc12)C(=O)N[C@@H](C)C(N)=O", "note": "(some centres unmarked) [Compound 4, HSCH2 CH[CH2 CH(CH3)2]COTrpAlaNH2]", "values": [
      {"measurement": "IC50", "setting": "[3]; [6]", "result": 0.05, "unit": "µM"}
    ]},
    {"smiles": "CC(C)CC(CS)C(=O)N[C@@H](Cc1ccc2ccccc2c1)C(=O)N[C@@H](C)C(N)=O", "note": "(some centres unmarked) [Compound 7, HSCH2 CH[CH2 CH(CH3)2]CCNalAlaNH2]", "values": [
      {"measurement": "IC50", "setting": "[3]; [6]", "result": 0.03, "unit": "µM"}
    ]},
    {"smiles": "CC(C)CC(CS)C(=O)N[C@@H](Cc1ccccc1)C(=O)N[C@@H](Cc1ccccc1)C(N)=O", "note": "(some centres unmarked) [Compound 6, HSCH2 CH[CH2 CH(CH3)2]COPhePheNH2]", "values": [
      {"measurement": "IC50", "setting": "[3]; [6]", "result": 2, "unit": "µM"}
    ]}
  ]
}
